Measured values from US20220389003A1, “4-SUBSTITUTED INDOLE AND INDAZOLE SULFONAMIDO DERIVATIVES AS PARG INHIBITORS” (IDEAYA BIOSCIENCES, INC., priority 2019, published 2022).

What was measured:
PARG [1] = target: T1, PARG (Homo sapiens, UniProt Q86W56); experiment: Inhibition of PARG cellular assay (PAR foci in HeLa cells after MMS); type: cell-based; design: endogenous in cells; host or cells: HeLa; conditions: compound 1 h then MMS 1 h
Outline: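 HeLa cells pretreated with compound for 1 h, then given MMS for a further 1 h, fixed and immunostained for PAR polymer. High-content imaging quantified nuclear PAR foci intensity (PAR Foci IC50) and percent cells with foci signal >1.3 (PAR % positive IC50).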

PARG [2] = target: T1, PARG; experiment: Inhibition of PARG enzymatic assay (TR-FRET enzymatic IC50 assay); type: biochemical; design: purchased Peak Proteins; conditions: hPARG 250 pM, biotinylated-PARylated PARP substrate 30 nM
Outline: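 Compound preincubated 1 h with 250 pM His-tagged hPARG, then 30 nM biotinylated PARylated hPARP1 substrate added for 10 min; buffer 50 mM Tris-HCl pH 7.4, EDTA/EGTA, 1 mM DTT, 23° C. TR-FRET read after 1 h with anti-His ULight antibody and streptavidin-europium; inhibition scaled between DMSO and no-enzyme controls.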

[3] = test system: HCC1806-XRCC1 KD (knock down) cells; experiment: Cellular viability assay (Cell Titer-Glo); type: cell-based; conditions: 96 h, HCC1806-shXRCC1 cells, 4 days of incubation, read-out: PARGi cell viability
Outline: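 XRCC1-knockdown HCC1806 cells seeded 24 h before dosing; 9-point 1:3 dilution from 30 μM top concentration, duplicates, 4-day incubation. Viability by CellTiter-Glo luminescence, normalized to DMSO wells as % of control; curves fit with 4-parameter inhibition model.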

T1 sequence (Q86W56 whole entry): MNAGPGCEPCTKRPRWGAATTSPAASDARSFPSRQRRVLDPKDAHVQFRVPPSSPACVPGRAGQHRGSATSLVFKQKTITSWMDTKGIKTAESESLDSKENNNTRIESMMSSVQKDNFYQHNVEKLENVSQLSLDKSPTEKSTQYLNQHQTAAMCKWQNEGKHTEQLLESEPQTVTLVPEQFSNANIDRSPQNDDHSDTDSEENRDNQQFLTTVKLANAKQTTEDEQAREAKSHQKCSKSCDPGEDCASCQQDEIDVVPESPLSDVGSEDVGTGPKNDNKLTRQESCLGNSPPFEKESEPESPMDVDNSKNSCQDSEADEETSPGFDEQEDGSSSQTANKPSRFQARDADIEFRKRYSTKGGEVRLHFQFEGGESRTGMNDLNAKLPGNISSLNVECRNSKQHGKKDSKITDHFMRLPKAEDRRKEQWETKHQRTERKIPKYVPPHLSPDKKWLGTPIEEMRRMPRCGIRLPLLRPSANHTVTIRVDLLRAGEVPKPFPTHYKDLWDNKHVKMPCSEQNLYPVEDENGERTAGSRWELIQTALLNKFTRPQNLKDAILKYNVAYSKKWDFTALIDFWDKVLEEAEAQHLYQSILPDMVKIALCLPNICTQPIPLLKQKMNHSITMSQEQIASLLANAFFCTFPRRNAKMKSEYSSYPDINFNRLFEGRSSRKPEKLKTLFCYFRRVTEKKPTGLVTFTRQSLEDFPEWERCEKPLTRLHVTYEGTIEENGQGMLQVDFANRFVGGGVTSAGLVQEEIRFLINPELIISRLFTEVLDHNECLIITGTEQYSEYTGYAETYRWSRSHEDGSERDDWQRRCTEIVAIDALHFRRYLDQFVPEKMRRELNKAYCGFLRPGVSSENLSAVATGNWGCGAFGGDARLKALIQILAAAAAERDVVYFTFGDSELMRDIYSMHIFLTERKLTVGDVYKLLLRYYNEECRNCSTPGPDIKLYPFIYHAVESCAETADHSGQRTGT

IC50 (PARG [1]) [nM]	IC50 (PARG [2]) [nM]	IC50 [3] [nM]	SMILES
300 to 1000	1000 to 10000	10000 to 20000	N#CC1(NS(=O)(=O)c2cc(N3CCC4(CC3)COC4)c3c(Cl)nn(-c4nnc(C(F)F)s4)c3c2)CC1 [Example 114, 1-[({1-[5-(difluoromethyl)(1,3,4-thiadiazol-2-yl)]-3-chloro-4-(2-oxa-7-azaspiro[3.5]non-7-yl)-1H-indazol-6-yl}sulfonyl)amino]cyclopropanecarbonitrile]
300 to 1000	300 to 1000	10000 to 20000	CN(C)C(=O)N1CCN(c2cc(S(=O)(=O)NC3(C#N)CC3)cc3c2c(Cl)nn3-c2nnc(C(F)F)s2)CC1 [Example 115, [4-(1-[5-(difluoromethyl)(1,3,4-thiadiazol-2-yl)]-3-chloro-6-{[(cyanocyclopropyl)-amino]sulfonyl}(1H-indazol-4-yl))piperazinyl]-N,N-dimethylcarboxamide]
